We go through 1 molecule from patent US7884071B2, “Administration form for pharmaceutically active peptides with sustained release and method for the production thereof” (Zentaris GmbH, priority 2002, dated 2011).

The structures appear in SMILES notation. Counter-ions that a name gives are not always drawn. Where a SMILES comes first, the peptide text is derived from it. [ ]: non-standard residue; d: D form. dPhe(4-Cl) = N[C@H](Cc1ccc(Cl)cc1)C(=O)O; d2Nal = N[C@H](Cc1ccc2ccccc2c1)C(=O)O; d(hCit) = NC(=O)NCCCC[C@@H](N)C(=O)O; NMeY = CN[C@@H](Cc1ccc(O)cc1)C(=O)O; d3Pal = N[C@H](Cc1cccnc1)C(=O)O; Nle = CCCC[C@H](N)C(=O)O

The data set can be described thus: Fig. 6: Physicochemical data on D-63 153. An excerpt:
Table printed on a drawing sheet, Fig. 6
Title: Fig. 6: Physicochemical data on D-63 153
First reader's note: Unruled property list for a single peptide; the value of 'Structural formula:' is a chemical drawing and is left empty.

As for `CCCC[C@H](NC(=O)[C@@H](CCCCNC(N)=O)NC(=O)[C@H](Cc1ccc(O)cc1)N(C)C(=O)[C@H](CO)NC(=O)[C@@H](Cc1cccnc1)NC(=O)[C@@H](Cc1ccc(Cl)cc1)NC(=O)[C@@H](Cc1ccc2ccccc2c1)NC(C)=O)C(=O)N[C@@H](CCCNC(=N)N)C(=O)N1CCC[C@H]1C(=O)N[C@H](C)C(N)=O` [D-63153 (e.g. acetate salt), Ac-D-Nal(2)-D-Cpa-D-Pal(3)-Ser-N-Me-Tyr-D-Hci- Nle-Arg-Pro-D-Ala-NH2] (Ac-[d2Nal][dPhe(4-Cl)][d3Pal]S[NMeY][d(hCit)][Nle]RP[dA]-NH2), the “Solubility:” value came to 0.75 mg/ml in water.
